Laboratory results taken from patent publication US20020082273A1, “Agents for use in the treatment of alzheimer's disease” (priority 1998, published 2002).
Several values for one entry are separate records, joined by “and”; a condition that tells them apart may be missing. Equal entries are not always repeated. Entries after “also recorded” stand apart in the source; their conditions may differ. Where two headings read alike, the source gives them in different places.

Columns and labels:
[1] = cited from earlier work; for LogK, Ca: Table 1, K=[ML]/[M][L]
[2] = cited from earlier work; for LogK, Zn: Table 1, K=[ML]/[M][L]
[3] = cited from earlier work; for LogK, Mg: Table 1, K=[ML]/[M][L]
[4] = cited from earlier work; for LogK, Al: Table 1, K=[ML]/[M][L]
[5] = cited from earlier work; for LogK, Co: Table 1, K=[ML]/[M][L]
[6] = cited from earlier work; for LogK, Cu: K=[ML]/[M][L]
[7] = cited from earlier work; for LogK, Fe: Table 1, K=[ML]/[M][L]
[8] = Residual metals in post-centrifugation pellets of brain homogenates (ICP-AES); type: biochemical, human; conditions: Table 6
[9] = tested on: Aβ deposits of AD-affected brain; assay: Extraction (solubilization) of Aβ from post-mortem AD brain tissue homogenates, western blot densitometry; type: biochemical, human
Description: Identical regions of frontal cortex (0.5 g) from post-mortem brains of individuals with AD, as well as non-AD conditions, were homogenized in TBS, […] ±metal chelators.
0.5 g of prefrontal cortex was dissected and homogenized in PBS ±chelator as indicated. The homogenate was then centrifuged (100,000 g) and the supernatant removed, and a sample taken for western blot assay using anti-Aβ specific antibodies after Tricine PAGE. Densitometry was performed against synthetic peptide standards.
Densitometry of Aβ western blots (FIGS. 19A-19C) was performed for a series of 6 AD brain samples homogenized in the presence of chelators as indicated.
Next the ability of clioquinol to extract Aβ deposits from human brain was examined. […] Fragments of prefrontal cortex from individual post-mortem samples with the histopathological diagnosis of AD were homogenized in PBS, pH 7.4, and then pelleted after centrifugation. The pellets were then washed with agitation twice for 30 minutes, 4° C., with PBS or PBS containing clioquinol (100% =0.8 μM clioquinol). The suspension was then pelleted (10,000 g for 30 minutes) and the supernatant removed (S1) for western blot analysis using Aβ-specific antibodies (illustrated). The pellet was treated a second time in this experiment with agitation and centrifugation, and the second supernatant (S2) analysed.
Soluble Aβ (ng/g tissue) was determined as described. Total Aβ was determined following formic acid extraction of otherwise untreated tissue.
Suitable quantities of gray matter from each subject were minced to serve as pools of homogenous tissue. […] To obtain the soluble fraction, the homogenates were centrifuged at 100,000× g for 30 min (Beckman J180, Beckman instruments, Fullerton, California) and the supernatant collected in 1 ml aliquots and stored on ice or immediately frozen at −70° C. In each experiment, all protein was precipitated from 1 ml of supernatant from each treatment group using 1:5 ice cold 10% trichloracetic acid and pelleted in a bench top microfuge (Heraeus, Osteroder, Germany) at 10,000× g. The remaining pellet was frozen at −70° C.
Precipitated protein was subjected to SDS polyacrylamide gel electrophoresis (SDS-PAGE) on Novex pre-cast 10-20% Tris-Tricine gels followed by Western transfer onto 0.2 μm nitrocellulose membrane (Biorad, Hercules, Calif.). […] Each gel included two or more lanes containing known quantities of synthetic Aβ which served as internal reference standards. Blot images were captured by a Relisys scanner with transparency adapter (Teco Information Systems, Taiwan, ROC) and densitometry conducted using the NIH Image 1.6 program (National Institutes for Health, USA. Modified for PC by Scion Corporation, Frederick, Md.), calibrated using a step diffusion chart. For quantitation of Aβ in brain extracts, the internal reference standards of synthetic Aβ were utilized to produce standard curves from which values were interpolated.

Which results are given for `c1ccc(-c2ccnc3c2ccc2c(-c4ccccc4)ccnc23)cc1` [Bathophenanthroline]?
LogK, Ca [1]: 0; LogK, Zn [2]: 6.9; LogK, Mg [3]: 0; LogK, Al [4]: 0; LogK, Co [5]: 0; LogK, Cu ([6]; Table 1): 8.8; LogK, Fe [7]: 5.6

Which log stability constant ([6]; FIG. 34C legend, metal not given, Cu^2+ implied) does the source give for `O=C(O)CN(CCN(CC(=O)O)CC(=O)O)CCN(CC(=O)O)CC(=O)O` [DTPA, diethylenetriaminopenta acetic acid] here?
Its log stability constant is 21.1.

For `O=C(O)CN(CCOCCOCCN(CC(=O)O)CC(=O)O)CC(=O)O` [EGTA], which “Residual Al in extracted pellet” value ([8]; chelator 0.001 mM) is on record?
Its value is 43 mg/kg.

And the “Residual Ca in extracted pellet” value ([8]; chelator 0.001 mM)?
Its value is 862 mg/kg.

What about the “Residual Cu in extracted pellet” value ([8]; chelator 0.001 mM) of the same compound?
Its value is 12 mg/kg.

And the “Residual Fe in extracted pellet” value ([8]; chelator 0.001 mM)?
The value was 281 mg/kg.

What about the “Residual Mg in extracted pellet” value ([8]; chelator 0.001 mM) of the same compound?
The value was 237 mg/kg.

And the “Residual Zn in extracted pellet” value ([8]; chelator 0.001 mM)?
Its value is 49 mg/kg.

And the “Residual Al in extracted pellet” value ([8]; chelator 0.004 mM)?
Its value is 73 mg/kg.

What about the “Residual Ca in extracted pellet” value ([8]; chelator 0.004 mM) of the same compound?
The value was 795 mg/kg.

And the “Residual Cu in extracted pellet” value ([8]; chelator 0.004 mM)?
The value was 11 mg/kg.

What about the “Residual Fe in extracted pellet” value ([8]; chelator 0.004 mM) of the same compound?
The value was 247 mg/kg.

And the “Residual Mg in extracted pellet” value ([8]; chelator 0.004 mM)?
Its value is 228 mg/kg.

What about the “Residual Zn in extracted pellet” value ([8]; chelator 0.004 mM) of the same compound?
Its value is 53 mg/kg.

What about the “Residual Al in extracted pellet” value ([8]; chelator 0.01 mM) of the same compound?
Its value is 61 mg/kg.

What about the “Residual Ca in extracted pellet” value ([8]; chelator 0.01 mM) of the same compound?
Its value is 675 mg/kg.

What about the “Residual Cu in extracted pellet” value ([8]; chelator 0.01 mM) of the same compound?
Its value is 13 mg/kg.

And the “Residual Fe in extracted pellet” value ([8]; chelator 0.01 mM)?
Its value is 272 mg/kg.

And the “Residual Mg in extracted pellet” value ([8]; chelator 0.01 mM)?
Its value is 213 mg/kg.

And the “Residual Zn in extracted pellet” value ([8]; chelator 0.01 mM)?
Its value is 54 mg/kg.

What about the “Residual Al in extracted pellet” value ([8]; chelator 0.04 mM) of the same compound?
Its value is 104 mg/kg.

What about the “Residual Ca in extracted pellet” value ([8]; chelator 0.04 mM) of the same compound?
The value was 1402 mg/kg.

What about the “Residual Cu in extracted pellet” value ([8]; chelator 0.04 mM) of the same compound?
The value was 13 mg/kg.

And the “Residual Fe in extracted pellet” value ([8]; chelator 0.04 mM)?
The value was 438 mg/kg.

And the “Residual Mg in extracted pellet” value ([8]; chelator 0.04 mM)?
The value was 247 mg/kg.

And the “Residual Zn in extracted pellet” value ([8]; chelator 0.04 mM)?
Its value is 71 mg/kg.

And the “Residual Al in extracted pellet” value ([8]; chelator 2.0 mM)?
The value was 62 mg/kg.

What about the “Residual Ca in extracted pellet” value ([8]; chelator 2.0 mM) of the same compound?
Its value is 519 mg/kg.

And the “Residual Cu in extracted pellet” value ([8]; chelator 2.0 mM)?
Its value is 13 mg/kg.

What about the “Residual Fe in extracted pellet” value ([8]; chelator 2.0 mM) of the same compound?
Its value is 238 mg/kg.

What about the “Residual Mg in extracted pellet” value ([8]; chelator 2.0 mM) of the same compound?
Its value is 191 mg/kg.

What about the “Residual Zn in extracted pellet” value ([8]; chelator 2.0 mM) of the same compound?
Its value is 27 mg/kg.

And the “Residual Al in extracted pellet” value ([8]; chelator 5.0 mM)?
The value was 27 mg/kg.

What about the “Residual Ca in extracted pellet” value ([8]; chelator 5.0 mM) of the same compound?
The value was 455 mg/kg.

And the “Residual Cu in extracted pellet” value ([8]; chelator 5.0 mM)?
Its value is 12 mg/kg.

What about the “Residual Fe in extracted pellet” value ([8]; chelator 5.0 mM) of the same compound?
The value was 230 mg/kg.

What about the “Residual Mg in extracted pellet” value ([8]; chelator 5.0 mM) of the same compound?
Its value is 168 mg/kg.

What about the “Residual Zn in extracted pellet” value ([8]; chelator 5.0 mM) of the same compound?
Its value is 18 mg/kg.

What about the “LogK, Ca” value [1] of the same compound?
The value was 10.9.

What about the “Stability constant logK10, Ca” value ([1]; Table 5, NIST database) of the same compound?
Its value is 10.86.

And the “Effect of Chelators upon extraction of Aβ (% change from control)” value (“Effect … (% change from control)” below) ([9]; 0.1 mM chelator, mean n = 6 AD brain samples, above PBS extraction alone)?
Its value is 207%.

And the “Effect … (% change from control)” value ([9]; 2.0 mM chelator, mean n = 6 AD brain samples, above PBS extraction alone)?
The value was 46%.

And the “Aβ signal versus PBS control” value ([9]; EGTA 2 mM)?
The value was “virtually abolished the signal for Aβ; also recorded: diminution in Aβ signal”.

And the “efficiency in extracting Aβ” value ([9]; neutral saline buffer, TPEN 5 μM)?
Its value is “less efficient”.

And the “LogK, Zn” value [2]?
Its value is 12.6.

What about the “Stability constant logK10, Zn” value ([2]; Table 5, NIST database) of the same compound?
Its value is 12.6.

What about the “LogK, Mg” value [3] of the same compound?
Its value is 5.3.

What about the “Stability constant logK10, Mg” value ([3]; Table 5, NIST database) of the same compound?
Its value is 5.28.

What about the “LogK, Al” value [4] of the same compound?
The value was 13.9.

What about the “Stability constant logK10, Al” value ([4]; Table 5, NIST database) of the same compound?
Its value is 13.9.

And the “LogK, Co” value [5]?
The value was 12.4.

What about the “Stability constant logK10, Co” value ([5]; Table 5, NIST database) of the same compound?
The value was 12.35.

What about the “LogK, Cu” value ([6]; Table 1) of the same compound?
The value was 17.6.

What about the “Stability constant logK10, Cu” value ([6]; Table 5, NIST database) of the same compound?
Its value is 17.57.

And the “LogK, Fe” value [7]?
The value was 11.8.

What about the “Stability constant logK10, Fe” value ([7]; Table 5, NIST database) of the same compound?
The value was 11.8.

What does the source list for `CC(C)(S)[C@@H](N)C(=O)O` [Penicillamine]?
LogK, Ca [1]: 0; LogK, Zn [2]: 10.2; LogK, Mg [3]: 0; LogK, Al [4]: 0; LogK, Co [5]: 0; LogK, Cu ([6]; Table 1): 18.2; LogK, Fe [7]: 0

Which “LogK, Ca” value [1] does the source give for bathocuproinedisulfonic acid [BC] here?
Its value is 0.

What about the “Effect … (% change from control)” value [9] of the same compound?
Its value is 301% and 400%.

And the “efficiency in extracting Aβ” value [9]?
Its value is “highly efficient”.

And the “LogK, Zn” value [2]?
Its value is 4.1.

And the “LogK, Mg” value [3]?
Its value is 0.

And the “LogK, Al” value [4]?
The value was 0.

And the “LogK, Co” value [5]?
The value was 4.2.

And the “LogK, Cu (Cu^+)” value ([6]; Table 1, value for Cu^+)?
Its value is 19.1.

What about the “LogK, Fe” value [7] of the same compound?
Its value is 0.
